In this data set the test system is CCRIS mutagenicity, Ames/micronucleus/aberration tests. The experiment in a line: CCRIS mutagenicity studies.
Where [1] appears, read: Test System: AMES SALMONELLA TYPHIMURIUM, Strain/Indicator: TA98, Metabolic Activation: NONE, Method: PREINCUBATION

The source made the active and inactive calls. The rule behind the calls is not given here.

On to `C[C@H](CCC(=O)O)[C@H]1CC[C@H]2[C@@H]3[C@H](O)C[C@@H]4C[C@H](O)CC[C@]4(C)[C@H]3C[C@H](O)[C@]12C`, for which the mutagenic call under setting [1] was “inactive; negative”; the mutagenic call (Test System: AMES SALMONELLA TYPHIMURIUM, Strain/Indicator: TA98, Method: PREINCUBATION) was “inactive; negative”; the mutagenic call (Test System: AMES SALMONELLA TYPHIMURIUM, Strain/Indicator: TA100, Metabolic Activation: NONE, Method: STANDARD PLATE) is “inactive; negative”; the mutagenic call (Test System: AMES SALMONELLA TYPHIMURIUM, Strain/Indicator: TA100, Metabolic Activation: RAT, LIVER, S-9, AROCLOR 1254, Method: STANDARD PLATE) is “inactive; negative”.
For the compound `CCCCCCCCCCCCCCCCCCN`, the mutagenic call was “inactive; negative” (Test System: AMES SALMONELLA TYPHIMURIUM, Strain/Indicator: TA97, Metabolic Activation: HAMSTER, LIVER, S-9, AROCLOR 1254 (10 OR 30%), Method: PREINCUBATION); “inactive; negative” (Test System: AMES SALMONELLA TYPHIMURIUM, Strain/Indicator: TA97, Metabolic Activation: NONE, Method: PREINCUBATION); “inactive; negative” (Test System: AMES SALMONELLA TYPHIMURIUM, Strain/Indicator: TA97, Metabolic Activation: RAT, LIVER, S-9, AROCLOR 1254 (10 OR 30%), Method: PREINCUBATION); “inactive; negative” (Test System: AMES SALMONELLA TYPHIMURIUM, Strain/Indicator: TA98, Metabolic Activation: HAMSTER, LIVER, S-9, AROCLOR 1254 (10 OR 30%), Method: PREINCUBATION); “inactive; negative” under setting [1]; “inactive; negative” (Test System: AMES SALMONELLA TYPHIMURIUM, Strain/Indicator: TA98, Metabolic Activation: RAT LIVER S-9, PHENOBARBITAL AND BETA-NAPHTHOFLAVONE, Method: PREINCUBATION). For the same compound, the mutagenic call runs as follows: (Test System: AMES SALMONELLA TYPHIMURIUM, Strain/Indicator: TA98, Metabolic Activation: RAT, LIVER, S-9, AROCLOR 1254 (10 OR 30%), Method: PREINCUBATION) “inactive; negative”; (Test System: AMES SALMONELLA TYPHIMURIUM, Strain/Indicator: TA100, Metabolic Activation: HAMSTER, LIVER, S-9, AROCLOR 1254 (10 OR 30%), Method: PREINCUBATION) “inactive; negative”; (Test System: AMES SALMONELLA TYPHIMURIUM, Strain/Indicator: TA100, Metabolic Activation: NONE, Method: PREINCUBATION) “inactive; negative”; (Test System: AMES SALMONELLA TYPHIMURIUM, Strain/Indicator: TA100, Metabolic Activation: RAT LIVER S-9, PHENOBARBITAL AND BETA-NAPHTHOFLAVONE, Method: PREINCUBATION) “inactive; negative”; (Test System: AMES SALMONELLA TYPHIMURIUM, Strain/Indicator: TA100, Metabolic Activation: RAT, LIVER, S-9, AROCLOR 1254 (10 OR 30%), Method: PREINCUBATION) “inactive; negative”; (Test System: AMES SALMONELLA TYPHIMURIUM, Strain/Indicator: TA1535, Metabolic Activation: HAMSTER, LIVER, S-9, AROCLOR 1254 (10 OR 30%), Method: PREINCUBATION) “inactive; negative”. The mutagenic call is, setting by setting: (Test System: AMES SALMONELLA TYPHIMURIUM, Strain/Indicator: TA1535, Metabolic Activation: NONE, Method: PREINCUBATION) “inactive; negative”; (Test System: AMES SALMONELLA TYPHIMURIUM, Strain/Indicator: TA1535, Metabolic Activation: RAT LIVER S-9, PHENOBARBITAL AND BETA-NAPHTHOFLAVONE, Method: PREINCUBATION) “inactive; negative”; (Test System: AMES SALMONELLA TYPHIMURIUM, Strain/Indicator: TA1535, Metabolic Activation: RAT, LIVER, S-9, AROCLOR 1254 (10 OR 30%), Method: PREINCUBATION) “inactive; negative”; (Test System: AMES SALMONELLA TYPHIMURIUM, Strain/Indicator: TA1537, Metabolic Activation: NONE, Method: PREINCUBATION) “inactive; negative”; (Test System: AMES SALMONELLA TYPHIMURIUM, Strain/Indicator: TA1537, Metabolic Activation: RAT LIVER S-9, PHENOBARBITAL AND BETA-NAPHTHOFLAVONE, Method: PREINCUBATION) “inactive; negative”; (Test System: E.COLI, Strain/Indicator: WP2UVRA/PKM101, Metabolic Activation: NONE, Method: PREINCUBATION) “inactive; negative”. For the same compound, for the setting “Test System: E.COLI, Strain/Indicator: WP2UVRA/PKM101, Metabolic Activation: RAT LIVER S-9, PHENOBARBITAL AND BETA-NAPHTHOFLAVONE, Method: PREINCUBATION”, the mutagenic call was “inactive; negative”.
On to `Cc1ccc([N+](=O)[O-])c(C)c1[N+](=O)[O-]`, for which the mutagenic call is, setting by setting: under setting [1], “inactive; negative”; (Test System: AMES SALMONELLA TYPHIMURIUM, Strain/Indicator: TA98, Metabolic Activation: RAT, LIVER, S-9, KANECHLOR 500, Method: PREINCUBATION) “inactive; negative”; (Test System: AMES SALMONELLA TYPHIMURIUM, Strain/Indicator: TA100, Metabolic Activation: RAT, LIVER, S-9, KANECHLOR 500, Method: PREINCUBATION) “active; positive”.

The values above are taken from PubChem BioAssay AID1259407 (Chemical Carcinogenesis Research Information System (CCRIS), 2018).
